From patent publication US9487510B2, “Substituted heterocyclic acetamides as kappa opioid receptor (KOR) agonists” (Dr. Reddy's Laboratories Ltd., priority 2012, dated 2016) come the findings set out here.

Counter-ions that a name gives are not always drawn.

Chain of human KOR receptor (P41145 whole entry): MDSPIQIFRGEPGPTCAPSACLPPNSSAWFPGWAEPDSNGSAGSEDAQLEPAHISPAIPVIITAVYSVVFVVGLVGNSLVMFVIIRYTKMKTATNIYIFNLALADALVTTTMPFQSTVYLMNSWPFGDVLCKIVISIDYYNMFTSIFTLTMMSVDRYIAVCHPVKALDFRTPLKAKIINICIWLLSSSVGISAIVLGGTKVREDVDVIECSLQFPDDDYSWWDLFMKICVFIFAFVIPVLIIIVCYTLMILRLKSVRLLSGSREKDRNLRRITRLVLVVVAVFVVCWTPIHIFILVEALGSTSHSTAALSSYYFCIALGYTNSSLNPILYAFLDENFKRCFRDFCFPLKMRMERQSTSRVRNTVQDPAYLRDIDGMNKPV

The experiment concerns the target human KOR receptor (Homo sapiens, UniProt P41145). Kind of experiment: IP-One HTRF assay, potency of KOR agonists, dose-response in transiently transfected COS-7 cells. The format is cell-based. In general terms: Time-resolved FRET reads energy transfer from a long-lived donor to a nearby acceptor.
The term EC50 denotes the concentration needed to bring the measured effect to its halfway point. `CC(C)(C)OC(=O)COc1cccc(C(CN2CC[C@H](O)C2)NC(=O)Cc2ccc3oc(=O)[nH]c3c2)c1` (mixture of isomers) [Example 74, (S)-tert-butyl 2-(3-(2-(3-hydroxypyrrolidin-1-yl)-1-(2-(2-oxo-2,3-dihydrobenzo[d]oxazol-5-yl)acetamido)ethyl)phenoxy)acetate] yielded an EC50 of at most 50 nM.
Regarding `CN(C(=O)Cc1ccc2oc(=O)[nH]c2c1)C(CN1CC[C@H](O)C1)c1cccc(OCC#N)c1` (mixture of isomers) [Example 76, N-(1-(3-(cyanomethoxy)phenyl)-2-(3-hydroxypyrrolidin-1-yl)ethyl)-N-methyl-2-(2-oxo-2,3-dihydrobenzo[d]oxazol-5-yl)acetamide], the EC50 was at most 50 nM.
The molecule `O=C(O)COc1cccc(C(CN2CC[C@H](O)C2)NC(=O)Cc2ccc3c(c2)NC(=O)C3)c1` (mixture of isomers) [Example 100, (S)-2-(3-(2-(3-hydroxypyrrolidin-1-yl)-1-(2-(2-oxoindolin-6-yl)acetamido)ethyl)phenoxy)acetic acid hydrochloride] came in with an EC50 of at most 50 nM.
In the case of `O=C(O)COc1cccc(C(CN2CC[C@H](O)C2)NC(=O)Cc2ccc3oc(=O)[nH]c3c2)c1` (mixture of isomers) [Example 101, (S)-2-(3-(2-(3-hydroxypyrrolidin-1-yl)-1-(2-(2-oxo-2,3-dihydrobenzo[d]oxazol-5-yl)acetamido)ethyl)phenoxy)acetic acid] it was at most 50 nM.
In the case of `CN(C(=O)Cc1ccc2oc(=O)[nH]c2c1)C(CN1CC[C@H](O)C1)c1cccc(OCc2nn[nH]n2)c1` (stereo in doubt) [Example 105, (R)-N-(1-(3-((2H-tetrazol-5-yl)methoxy)phenyl)-2-(3-hydroxypyrrolidin-1-yl)ethyl)-N-methyl-2-(2-oxo-2,3-dihydrobenzo[d]oxazol-5-yl)acetamide] it was at most 50 nM; in that of `CN(C(=O)Cc1ccc2c(c1)NC(=O)CS2(=O)=O)[C@H](CN1CCC(O)C1)c1ccccc1` (stereo in doubt) [Example 120, 2-(1,1-dioxido-3-oxo-3,4-dihydro-2H-benzo[b][1,4]thiazin-6-yl)-N-((S)-2-((S)-3-hydroxypyrrolidin-1-yl)-1-phenylethyl)-N-methylacetamide], at most 50 nM.
For `CC(C)CN(C(=O)Cc1ccc2c(c1)NC(=O)CS2(=O)=O)[C@H](CN1CCC(O)C1)c1cccc(OC(F)(F)F)c1` (stereo in doubt) [Example 140, 2-(1,1-dioxido-3-oxo-3,4-dihydro-2H-benzo[b][1,4]thiazin-6-yl)-N-((S)-2-((S)-3-hydroxypyrrolidin-1-yl)-1-(3-(trifluoromethoxy)phenyl)ethyl)-N-isobutylacetamide], the EC50 was at most 50 nM.
Then `O=C1CS(=O)(=O)c2ccc(CC(=O)N(CC3CC3)[C@H](CN3CCC(O)C3)c3cccc(OC(F)(F)F)c3)cc2N1` (stereo in doubt) [Example 141, N-(cyclopropylmethyl)-2-(1,1-dioxido-3-oxo-3,4-dihydro-2H-benzo[b][1,4]thiazin-6-yl)-N-((S)-2-((S)-3-hydroxypyrrolidin-1-yl)-1-(3-(trifluoromethoxy)phenyl)ethyl)acetamide], with at most 50 nM; and `CN(C(=O)Cc1ccc2c(c1)NC(=O)CS2(=O)=O)C(CN1CC[C@H](O)C1)c1ccc(OC(F)(F)F)cc1` (stereo in doubt) [Example 142, 2-(1,1-dioxido-3-oxo-3,4-dihydro-2H-benzo[b][1,4]thiazin-6-yl)-N-((S)-2-((S)-3-hydroxypyrrolidin-1-yl)-1-(4-(trifluoromethoxy)phenyl)ethyl)-N-methylacetamide], with at most 50 nM.
Then `Cc1cc(C)cc([C@@H](CN2CCC(O)C2)N(C)C(=O)Cc2ccc3c(c2)NC(=O)CS3(=O)=O)c1` (stereo in doubt) [Example 147, N-((S)-1-(3,5-dimethylphenyl)-2-((S)-3-hydroxypyrrolidin-1-yl)ethyl)-2-(1,1-dioxido-3-oxo-3,4-dihydro-2H-benzo[b][1,4]thiazin-6-yl)-N-methylacetamide], with at most 50 nM; and `CN(C(=O)Cc1ccc2c(c1)NC(=O)CS2(=O)=O)C(CN1CCC(O)C1)c1cccc(C2CC2)c1` (stereo in doubt) [Example 150, N-((S)-1-(3-cyclopropylphenyl)-2-((S)-3-hydroxypyrrolidin-1-yl)ethyl)-2-(1,1-dioxido-3-oxo-3,4-dihydro-2H-benzo[b][1,4]thiazin-6-yl)-N-methylacetamide], with at most 50 nM.
`CN(C(=O)Cc1ccc2c(c1)CC(=O)N2)C(CN1CCC(O)C1)c1ccccc1` (stereo in doubt) [Example 161, N-((S)-2-((S)-3-hydroxypyrrolidin-1-yl)-1-phenylethyl)-N-methyl-2-(2-oxoindolin-5-yl)acetamide]: the EC50 was at most 50 nM.
Then `O=C1COc2ccc(CC(=O)N[C@H](CN3CC[C@H](O)C3)c3ccccc3)cc2N1` [Example 2, N-[(1S)-2-[(3S)-3-hydroxypyrrolidin-1-yl]-1-phenylethyl]-2-(3-oxo-3,4-dihydro-2H-1,4-benzoxazin-6-yl)acetamide], with at most 50 nM; and `O=C(Cc1ccc2sc(=O)[nH]c2c1)N[C@H](CN1CCCC1)c1ccccc1` [Example 4, (S)-2-(2-oxo-2,3-dihydrobenzo[d]thiazol-5-yl)-N-(1-phenyl-2-(pyrrolidin-1-yl)ethyl)acetamide], with 51 to 100 nM.
Then `CN(C(=O)Cc1ccc2c(c1)NC(=O)CS2(=O)=O)[C@H](CN1CC[C@H](O)C1)c1cccc(OC(F)(F)F)c1` [Example 5, 2-(1,1-dioxido-3-oxo-3,4-dihydro-2H-benzo [b][1,4]thiazin-6-yl)-N-((S)-2-((S)-3-hydroxypyrrolidin-1-yl)-1-(3-(trifluoromethoxy)phenyl)ethyl)-N-methylacetamide], with at most 50 nM; and `CN(C(=O)Cc1ccc2c(c1)NC(=O)CS2(=O)=O)[C@H](CN1CC[C@H](O)C1)c1cccc(C#N)c1` [Example 6, N-((S)-1-(3-cyanophenyl)-2-((S)-3-hydroxypyrrolidin-1-yl)ethyl)-2-(1,1-dioxido-3-oxo-3,4-dihydro-2H-benzo[b][1,4]thiazin-6-yl)-N-methylacetamide], with at most 50 nM; and `CN(C(=O)Cc1ccc2c(c1)NC(=O)CS2)[C@H](CN1CC[C@H](O)C1)c1ccccc1` [Example 7, N-((S)-2-((S)-3-hydroxypyrrolidin-1-yl)-1-phenylethyl)-N-methyl-2-(3-oxo-3,4-dihydro-2H-benzo[b][1,4]thiazin-6-yl)acetamide], with at most 50 nM.
With `CN(C(=O)Cc1ccc2c(c1)S(=O)(=O)NC2=O)[C@H](CN1CC[C@H](O)C1)c1ccccc1` [Example 8, 2-(1,1-dioxido-3-oxo-2,3-dihydrobenzo[d]isothiazol-6-yl)-N-((S)-2-((S)-3-hydroxypyrrolidin-1-yl)-1-phenylethyl)-N-methylacetamide], the EC50 is at least 1000 nM.
Then `CN(C(=O)Cc1ccc2c(c1)NS(=O)(=O)C2)[C@H](CN1CC[C@H](O)C1)c1cccc(C(F)(F)F)c1` [Example 9, 2-(2,2-dioxido-1,3-dihydrobenzo[c]isothiazol-6-yl)-N-((S)-2-((S)-3-hydroxypyrrolidin-1-yl)-1-(3-(trifluoromethyl)phenyl)ethyl)-N-methylacetamide], with 101 to 1000 nM; and `CN(C(=O)Cc1ccc2c(c1)CS(=O)(=O)N2)[C@H](CN1CC[C@H](O)C1)c1ccccc1` [Example 10, 5-(2-(((S)-2-((S)-3-hydroxypyrrolidin-1-yl)-1-phenylethyl)(methyl)amino)-2-oxoethyl)-1,3-dihydrobenzo[c]isothiazol-1-ium 2,2-dioxide 2,2,2-trifluoroacetate], with 101 to 1000 nM; and `CN(C(=O)Cc1ccc2c(c1)NC(=O)CS2(=O)=O)[C@H](CN1CC[C@H](O)C1)c1cccc(OC(F)F)c1` [Example 11, N-((S)-1-(3-(difluoromethoxy)phenyl)-2-((S)-3-hydroxypyrrolidin-1-yl)ethyl)-2-(1,1-dioxido-3-oxo-3,4-dihydro-2H-benzo[b][1,4]thiazin-6-yl)-N-methylacetamide], with at least 1000 nM.
Then `CN(C(=O)Cc1ccc2c(c1)NC(=O)C2(F)F)[C@H](CN1CC[C@H](O)C1)c1ccccc1` [Example 12, 2-(3,3-difluoro-2-oxoindolin-6-yl)-N-((S)-2-((S)-3-hydroxypyrrolidin-1-yl)-1-phenylethyl)-N-methylacetamide], with at most 50 nM.
Then `O=C(Cc1ccc2c(c1)NC(=O)C2(F)F)N[C@H](CN1CC[C@H](O)C1)c1ccccc1` [Example 13, 2-(3,3-difluoro-2-oxoindolin-6-yl)-N-((S)-2-((S)-3-hydroxypyrrolidin-1-yl)-1-phenylethyl)acetamide], with at least 1000 nM.
For `CCN(C(=O)Cc1ccc2c(c1)NC(=O)CS2(=O)=O)[C@H](CN1CC[C@H](O)C1)c1cccc(OC(F)(F)F)c1` [Example 14, 2-(1,1-dioxido-3-oxo-3,4-dihydro-2H-benzo[b][1,4]thiazin-6-yl)-N-ethyl-N-((S)-2-((S)-3-hydroxypyrrolidin-1-yl)-1-(3-(trifluoromethoxy)phenyl)ethyl)acetamide], the EC50 is at least 1000 nM.
Then `CO[C@H]1CCN(C[C@H](c2cccc(OC(F)(F)F)c2)N(C)C(=O)Cc2ccc3c(c2)NC(=O)CS3(=O)=O)C1` [Example 15, 2-(1,1-dioxido-3-oxo-3,4-dihydro-2H-benzo[b][1,4]thiazin-6-yl)-N-((S)-2-((S)-3-methoxypyrrolidin-1-yl)-1-(3-(trifluoromethoxy)phenyl)ethyl)-N-methylacetamide], with at most 50 nM.
Then `O=C1CS(=O)(=O)c2ccc(CC(=O)N(CC(F)(F)F)[C@H](CN3CC[C@H](O)C3)c3cccc(OC(F)(F)F)c3)cc2N1` [Example 16, 2-(1,1-dioxido-3-oxo-3,4-dihydro-2H-benzo[b][1,4]thiazin-6-yl)-N-((S)-2-((S)-3-hydroxypyrrolidin-1-yl)-1-(3-(trifluoromethoxy)phenyl)ethyl)-N-(2,2,2-trifluoroethyl)acetamide 2,2,2-trifluoroacetate], with at most 50 nM; and `CN(C(=O)Cc1ccc2c(c1)NC(=O)CS2(=O)=O)C(CN1CC[C@H](O)C1)C1CCOCC1` (stereo partly drawn) [Example 17, 2-(1,1-dioxido-3-oxo-3,4-dihydro-2H-benzo[b][1,4]thiazin-6-yl)-N-(2-((S)-3-hydroxypyrrolidin-1-yl)-1-(tetrahydro-2H-pyran-4-yl)ethyl)-N-methylacetamide-2,2,2-trifluoroacetate], with 101 to 1000 nM.
